{"source": "ChEMBL document CHEMBL5325492", "about": "“PROTACs Targeting MLKL Protect Cells from Necroptosis” (J Med Chem, 2023)", "key": {"[1]": {"target": "T1, Protein cereblon/Mixed lineage kinase domain-like protein (Homo sapiens, UniProt Q8NB16+Q96SW2)", "assay": "PROTAC activity at CRBN/MLKL in human HK-2 cells assessed as remaining protein level in cell lysates at 0.1 to 10 uM incubated for 24 hrs measured by capillary immunoassay", "type": "subcellular", "conditions": "dose 0.1-10 µM"}, "[2]": {"target": "T1, Protein cereblon/Mixed lineage kinase domain-like protein", "assay": "PROTAC activity at CRBN/MLKL in human HT-29 cells assessed as degraded protein level in cell lysates incubated for 24 hrs measured by capillary immunoassay relative to vehicle treated control", "type": "subcellular"}, "[3]": {"target": "Receptor-interacting serine/threonine-protein kinase 3 (Homo sapiens) (UniProt Q9Y572)", "sequence (Q9Y572 whole entry, looked up)": "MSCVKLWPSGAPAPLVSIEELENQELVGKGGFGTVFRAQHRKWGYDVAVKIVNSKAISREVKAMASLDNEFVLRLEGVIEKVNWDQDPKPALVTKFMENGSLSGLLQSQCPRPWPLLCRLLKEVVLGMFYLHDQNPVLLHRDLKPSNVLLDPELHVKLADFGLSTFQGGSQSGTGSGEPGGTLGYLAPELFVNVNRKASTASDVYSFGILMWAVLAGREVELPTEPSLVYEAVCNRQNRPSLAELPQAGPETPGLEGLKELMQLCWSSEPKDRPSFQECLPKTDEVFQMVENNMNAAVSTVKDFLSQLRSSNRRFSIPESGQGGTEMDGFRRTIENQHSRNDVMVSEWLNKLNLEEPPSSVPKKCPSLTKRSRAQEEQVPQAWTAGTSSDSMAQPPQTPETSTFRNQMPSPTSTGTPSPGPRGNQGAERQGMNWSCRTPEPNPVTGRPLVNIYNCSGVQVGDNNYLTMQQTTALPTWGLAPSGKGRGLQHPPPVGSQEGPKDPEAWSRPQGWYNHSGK", "assay": "Binding affinity to wild type human RIPK3 (M1/Q307) expressed in bacterial expression system measured upto 10 uM by Eurofins-DiscoverX KINOMEscanTM KdELECT assay"}, "[4]": {"target": "T1, Protein cereblon/Mixed lineage kinase domain-like protein", "assay": "PROTAC activity at CRBN/MLKL in TSZ-induced human HT29 cells assessed as suppression of phosphorylated protein in cell lysates at 10 uM incubated for 8 hrs measured by capillary immunoassay", "type": "subcellular", "conditions": "HT-29"}, "[5]": {"target": "T1, Protein cereblon/Mixed lineage kinase domain-like protein", "assay": "PROTAC activity at CRBN/MLKL in TSZ-induced human HT29 cells assessed as suppression of phosphorylated protein in cell lysates at 10 uM incubated for 4 hrs measured by capillary immunoassay", "type": "subcellular", "conditions": "HT-29"}, "HT-29 [6]": {"system": "HT-29", "assay": "Cytotoxicity against human HT-29 cells assessed as cell viability at 10 uM incubated for 24 hrs in presence of 3-(4-((difluoromethyl)sulfonamido)phenyl)-5-((3-methoxyphenyl)amino)-1H-pyrazole-4-carboxamide by CellTiter-Glo assay", "type": "toxicity, cell-based", "conditions": "ht-29, 24 h"}, "[7]": {"target": "T1, Protein cereblon/Mixed lineage kinase domain-like protein", "assay": "PROTAC activity at CRBN/MLKL in human HT29 cells assessed as remaining protein level in cell lysates incubated for 72 hrs measured by capillary immunoassay", "type": "subcellular", "conditions": "HT-29"}, "[8]": {"target": "T1, Protein cereblon/Mixed lineage kinase domain-like protein", "assay": "PROTAC activity at CRBN/MLKL in human HEK-a cells assessed as remaining protein level in cell lysates at 0.1 to 10 uM incubated for 24 hrs measured by capillary immunoassay", "type": "subcellular", "conditions": "dose 0.1-10 µM"}, "[9]": {"target": "T1, Protein cereblon/Mixed lineage kinase domain-like protein", "assay": "PROTAC activity at CRBN/MLKL in human HT29 cells assessed as remaining protein level in cell lysates at 10 uM incubated upto 5 hrs measured by capillary immunoassay relative to vehicle treated control", "type": "subcellular", "conditions": "HT-29"}, "[10]": {"target": "T1, Protein cereblon/Mixed lineage kinase domain-like protein", "assay": "PROTAC activity at CRBN/MLKL in human HT29 cells assessed as remaining protein level in cell lysates at 10 uM incubated upto 8 hrs measured by capillary immunoassay relative to vehicle treated control", "type": "subcellular", "conditions": "HT-29"}, "HT-29 [11]": {"system": "HT-29", "assay": "Protection against TSZ-induced necroptosis in human HT-29 cells assessed as cell viability incubated for 24 hrs by CellTiter Glo assay", "conditions": "HT-29, 24 h"}, "[12]": {"target": "T1, Protein cereblon/Mixed lineage kinase domain-like protein", "assay": "PROTAC activity at CRBN/MLKL in TSZ-induced human HT29 cells assessed as remaining protein level in cell lysates preincubated with MG-132 for 30 mins followed by treated at 10 uM for 8 hrs measured by capillary immunoassay", "type": "subcellular", "conditions": "HT-29"}, "[13]": {"target": "Protein cereblon/Mixed lineage kinase domain-like protein (Mus musculus) (UniProt Q8C7D2+Q9D2Y4)", "sequence (Q8C7D2 whole entry, looked up, the tested form may be a part)": "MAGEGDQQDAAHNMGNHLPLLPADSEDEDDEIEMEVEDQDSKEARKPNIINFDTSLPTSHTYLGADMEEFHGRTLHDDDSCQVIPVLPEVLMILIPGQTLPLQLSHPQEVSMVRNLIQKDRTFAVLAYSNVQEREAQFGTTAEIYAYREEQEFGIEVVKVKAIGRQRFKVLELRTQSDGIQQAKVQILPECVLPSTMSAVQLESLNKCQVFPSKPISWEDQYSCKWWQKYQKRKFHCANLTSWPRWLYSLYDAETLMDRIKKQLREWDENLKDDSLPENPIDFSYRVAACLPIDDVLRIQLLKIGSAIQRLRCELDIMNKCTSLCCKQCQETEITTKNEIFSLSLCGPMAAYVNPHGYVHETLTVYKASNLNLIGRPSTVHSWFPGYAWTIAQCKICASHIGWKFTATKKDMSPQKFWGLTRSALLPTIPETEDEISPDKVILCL", "sequence (Q9D2Y4 whole entry, looked up, the tested form may be a part)": "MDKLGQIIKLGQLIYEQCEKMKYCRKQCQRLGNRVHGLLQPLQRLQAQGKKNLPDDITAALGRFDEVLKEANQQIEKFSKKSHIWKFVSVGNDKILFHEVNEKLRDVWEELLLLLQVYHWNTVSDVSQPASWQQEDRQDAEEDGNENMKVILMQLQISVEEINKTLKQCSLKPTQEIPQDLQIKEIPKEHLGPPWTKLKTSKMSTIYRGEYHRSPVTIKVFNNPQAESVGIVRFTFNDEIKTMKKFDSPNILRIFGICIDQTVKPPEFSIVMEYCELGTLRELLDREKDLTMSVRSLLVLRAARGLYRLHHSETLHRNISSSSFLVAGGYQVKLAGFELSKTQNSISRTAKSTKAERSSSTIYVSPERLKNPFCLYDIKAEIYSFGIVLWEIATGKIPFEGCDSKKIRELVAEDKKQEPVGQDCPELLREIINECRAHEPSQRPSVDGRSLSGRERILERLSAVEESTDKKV", "assay": "PROTAC activity at CRBN/MLKL in mouse NIH-3T3 cells assessed as remaining protein level in cell lysates at 0.1 to 10 uM incubated for 24 hrs measured by capillary immunoassay", "type": "subcellular", "conditions": "dose 0.1-10 µM"}, "[14]": {"target": "Protein cereblon/Receptor-interacting serine/threonine-protein kinase 1 (Homo sapiens) (UniProt Q13546+Q96SW2)", "sequence (Q96SW2 whole entry, looked up, one chain of several)": "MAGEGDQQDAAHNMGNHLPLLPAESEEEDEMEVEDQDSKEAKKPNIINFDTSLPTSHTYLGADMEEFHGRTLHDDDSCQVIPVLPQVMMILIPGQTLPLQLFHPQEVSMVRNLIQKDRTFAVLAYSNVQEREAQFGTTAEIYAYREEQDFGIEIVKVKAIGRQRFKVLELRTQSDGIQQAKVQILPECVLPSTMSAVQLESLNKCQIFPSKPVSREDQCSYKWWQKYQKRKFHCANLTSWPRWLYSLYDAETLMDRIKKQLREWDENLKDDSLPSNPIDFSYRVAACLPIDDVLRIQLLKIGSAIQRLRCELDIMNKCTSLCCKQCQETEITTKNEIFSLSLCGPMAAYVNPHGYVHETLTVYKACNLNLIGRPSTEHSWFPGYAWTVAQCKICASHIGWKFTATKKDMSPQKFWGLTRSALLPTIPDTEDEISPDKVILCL", "assay": "PROTAC activity at CRBN/RIPK1 in human HT29 cells assessed as remaining protein level in cell lysates at 10 uM incubated for 24 hrs measured by capillary immunoassay relative to vehicle treated control", "type": "subcellular", "conditions": "HT-29"}, "[15]": {"target": "T1, Protein cereblon/Mixed lineage kinase domain-like protein", "assay": "PROTAC activity at CRBN/MLKL in human HT-29 cells assessed as degraded protein level in cell lysates at 10 uM incubated for 24 hrs measured by capillary immunoassay relative to vehicle treated control", "type": "subcellular"}, "[16]": {"target": "Protein cereblon/Receptor-interacting serine/threonine-protein kinase 2 (Homo sapiens) (UniProt O43353+Q96SW2)", "sequence (O43353 whole entry, looked up)": "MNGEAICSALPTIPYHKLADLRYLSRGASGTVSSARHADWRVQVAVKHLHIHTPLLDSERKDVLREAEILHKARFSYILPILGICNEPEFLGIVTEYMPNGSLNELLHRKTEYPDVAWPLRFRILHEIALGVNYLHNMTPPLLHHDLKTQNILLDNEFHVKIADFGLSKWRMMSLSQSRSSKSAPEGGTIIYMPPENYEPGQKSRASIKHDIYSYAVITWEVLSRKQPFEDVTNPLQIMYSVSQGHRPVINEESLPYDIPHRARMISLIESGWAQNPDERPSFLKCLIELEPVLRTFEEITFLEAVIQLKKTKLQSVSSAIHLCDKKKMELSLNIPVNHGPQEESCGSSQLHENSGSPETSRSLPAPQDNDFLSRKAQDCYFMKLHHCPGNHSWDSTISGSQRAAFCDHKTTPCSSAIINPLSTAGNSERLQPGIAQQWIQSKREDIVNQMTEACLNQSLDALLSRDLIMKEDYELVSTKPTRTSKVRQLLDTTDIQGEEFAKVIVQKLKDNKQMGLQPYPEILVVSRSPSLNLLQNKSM", "sequence (Q96SW2 whole entry, looked up)": "as the sequence (Q96SW2 whole entry, looked up, one chain of several) above", "assay": "PROTAC activity at CRBN/RIPK2 in human HT29 cells assessed as remaining protein level in cell lysates at 10 uM incubated for 24 hrs measured by capillary immunoassay relative to vehicle treated control", "type": "subcellular", "conditions": "HT-29"}, "[17]": {"target": "T2, Mixed lineage kinase domain-like protein (Homo sapiens) (UniProt Q8NB16)", "T2 sequence (whole entry)": "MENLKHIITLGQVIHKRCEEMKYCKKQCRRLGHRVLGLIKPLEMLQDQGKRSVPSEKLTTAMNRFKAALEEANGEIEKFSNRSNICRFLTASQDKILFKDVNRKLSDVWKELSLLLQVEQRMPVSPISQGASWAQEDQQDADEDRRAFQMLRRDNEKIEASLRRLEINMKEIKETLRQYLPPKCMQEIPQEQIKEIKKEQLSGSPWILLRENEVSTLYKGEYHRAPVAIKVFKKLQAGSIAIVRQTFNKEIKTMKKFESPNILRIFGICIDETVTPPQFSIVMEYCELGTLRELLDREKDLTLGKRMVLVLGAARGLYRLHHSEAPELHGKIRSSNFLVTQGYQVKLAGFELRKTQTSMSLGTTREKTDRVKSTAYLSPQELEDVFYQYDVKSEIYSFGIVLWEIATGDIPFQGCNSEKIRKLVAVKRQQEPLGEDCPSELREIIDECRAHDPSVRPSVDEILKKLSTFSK", "assay": "Induction of MLKL degradation in human HT-29 cells assessed as remaining protein level in cell lysates incubated for 24 hrs measured by capillary immunoassay", "type": "subcellular"}, "HT-29 [18]": {"system": "HT-29", "assay": "Cytotoxicity against human HT-29 cells assessed as cell viability at 10 uM incubated for 24 hrs in presence of lenalidomide by CellTiter-Glo assay", "type": "toxicity, cell-based", "conditions": "ht-29, 24 h"}, "[19]": {"target": "T3, Receptor-interacting serine/threonine-protein kinase 1 (Homo sapiens) (UniProt Q13546)", "T3 sequence (whole entry)": "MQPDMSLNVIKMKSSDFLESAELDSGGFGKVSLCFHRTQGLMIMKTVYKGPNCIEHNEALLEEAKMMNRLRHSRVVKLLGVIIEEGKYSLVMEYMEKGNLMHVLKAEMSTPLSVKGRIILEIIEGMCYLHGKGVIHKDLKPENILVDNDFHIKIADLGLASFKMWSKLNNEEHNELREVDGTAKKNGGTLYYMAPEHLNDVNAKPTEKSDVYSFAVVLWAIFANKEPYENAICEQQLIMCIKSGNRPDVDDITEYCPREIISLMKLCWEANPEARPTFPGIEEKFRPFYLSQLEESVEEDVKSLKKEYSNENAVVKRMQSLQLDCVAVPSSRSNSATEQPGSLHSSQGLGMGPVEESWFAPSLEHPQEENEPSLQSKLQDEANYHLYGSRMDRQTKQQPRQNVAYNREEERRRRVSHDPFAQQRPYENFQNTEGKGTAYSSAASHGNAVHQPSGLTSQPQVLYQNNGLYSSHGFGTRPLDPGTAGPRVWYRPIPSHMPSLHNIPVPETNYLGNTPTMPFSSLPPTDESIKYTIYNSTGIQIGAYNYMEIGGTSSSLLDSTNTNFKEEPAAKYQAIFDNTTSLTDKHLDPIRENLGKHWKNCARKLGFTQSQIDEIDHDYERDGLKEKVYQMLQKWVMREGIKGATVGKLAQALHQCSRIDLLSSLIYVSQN", "assay": "Binding affinity to wild type human RIPK1 (M1/K305) expressed in bacterial expression system measured upto 10 uM by Eurofins-DiscoverX KINOMEscanTM KdELECT assay"}, "[20]": {"target": "T1, Protein cereblon/Mixed lineage kinase domain-like protein", "assay": "PROTAC activity at CRBN/MLKL in human MKN74 cells assessed as remaining protein level in cell lysates at 0.1 to 10 uM incubated for 24 hrs measured by capillary immunoassay", "type": "subcellular", "conditions": "dose 0.1-10 µM"}}, "note": "The source made the active and inactive calls. No cut-off for these calls is given here.", "data": [{"smiles": "COc1ccc(C(=O)N2CCC3(CCN(C(=O)CCCCCCCOc4cccc(Nc5[nH]nc(-c6ccc(NS(=O)(=O)C(F)F)cc6)c5C(N)=O)c4)CC3)CC2)cc1N1CCC(=O)NC1=O", "values": [{"measurement": "Activity", "setting": "[1]", "value": "Active"}, {"measurement": "EC50", "setting": "[2]", "value": 2.4, "unit": "µM"}, {"measurement": "Activity", "setting": "[2]; dose 0.1-10 µM", "value": "Dose-Dependent Effect"}, {"measurement": "Activity", "setting": "[3]", "value": "inactive"}, {"measurement": "Activity", "setting": "[4]", "value": "Active"}, {"measurement": "Activity", "setting": "[5]", "value": "Active"}, {"measurement": "Activity", "setting": "HT-29 [6]", "value": "Non-Toxic"}, {"measurement": "Activity", "setting": "[7]", "value": "Active"}, {"measurement": "Activity", "setting": "[8]", "value": "Active"}, {"measurement": "Activity", "setting": "[9]", "value": "< 10", "unit": "%"}, {"measurement": "Activity", "setting": "[10]", "value": "Active"}, {"measurement": "EC50", "setting": "HT-29 [11]", "value": 1.2, "unit": "µM"}, {"measurement": "Activity", "setting": "[12]", "value": "inactive"}, {"measurement": "Activity", "setting": "[13]", "value": "Active"}, {"measurement": "Activity", "setting": "[14]", "value": "inactive"}, {"measurement": "Activity", "setting": "[15]", "value": "> 90", "unit": "%"}, {"measurement": "Activity", "setting": "[16]", "value": "inactive"}, {"measurement": "Activity", "setting": "[17]", "value": "inactive"}, {"measurement": "Activity", "setting": "HT-29 [18]", "value": "Non-Toxic"}, {"measurement": "Activity", "setting": "[19]", "value": "inactive"}, {"measurement": "Activity", "setting": "[20]", "value": "Active"}]}]}
